# Results reported in patent US8022225B2, “Triazole derivative” (Taisho Pharmaceutical Co., Ltd, priority 2004, dated 2011).
# Experiments:
# human Edg-1(S1P1) [1] = biological target: T1, human Edg-1(S1P1) (Homo sapiens, UniProt P21453); experiment: Cell system binding test: inhibition of [3H]-S1P binding to Edg-1(S1P1) gene transferred HEK-293 cells; conditions: [3H]-S1P 10 nM
# T1 construct: expressed in transfected cells; host or cells: HEK-293
# human Edg-1(S1P1) [2] = biological target: T1, human Edg-1(S1P1); experiment: Membrane system binding test: inhibition of [33P]-S1P binding to the membrane fraction of Edg-1(S1P1) gene transferred HEK-293 cells; conditions: [33P]-S1P 0.1 nM
# Procedure, shortened: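 Compound tested at 10^−5 M final (0.1% DMSO) for blocking 0.1 nM [^33P]-S1P binding to S1P1-expressing HEK-293 membranes, 30 °C, 1 h. Radioactivity retained on filters was counted, and percent inhibition derived relative to vehicle binding, correcting for the background of non-transfected HEK-293 membranes.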
# [3] = 10 μM compound, read-out: Cell system binding test % inhibition (10 μM)
# [4] = 10 μM compound, membrane fraction of Edg-1(S1P1) gene transferred HEK-293 cells, read-out: Membrane system binding test % inhibition (10 μM)
# [5] = test compound 10^-5 M, 1 hour, read-out: Edg-1(S1P1) binding inhibition rate (cell system binding test)
# [6] = test compound 10^-5 M, 1 hour at 30° C., HEK-293 membrane fraction, read-out: Edg-1(S1P1) binding inhibition rate (membrane system binding test)
# T1 sequence (P21453 whole entry): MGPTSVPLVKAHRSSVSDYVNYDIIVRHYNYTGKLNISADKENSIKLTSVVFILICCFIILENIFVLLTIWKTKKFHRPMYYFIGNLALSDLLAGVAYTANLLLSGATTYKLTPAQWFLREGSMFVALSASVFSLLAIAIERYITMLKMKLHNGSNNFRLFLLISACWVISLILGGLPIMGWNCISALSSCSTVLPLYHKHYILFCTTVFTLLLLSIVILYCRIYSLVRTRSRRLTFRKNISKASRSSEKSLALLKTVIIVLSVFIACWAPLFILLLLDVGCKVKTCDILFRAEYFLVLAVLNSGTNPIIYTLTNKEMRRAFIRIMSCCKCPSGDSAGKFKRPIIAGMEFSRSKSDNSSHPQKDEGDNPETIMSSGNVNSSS
Structure (SMILES),inhibition at 10 µM (human Edg-1(S1P1) [1]; [3]),inhibition at 10 µM (human Edg-1(S1P1) [2]; [4]),further results
CCn1c(OCCCN(C)C)nnc1[C@@H](C)NS(=O)(=O)c1ccc(Cl)cc1 [Compound 188],82%,46.3%,
CCn1c(OC)nnc1[C@@H](C)NS(=O)(=O)c1cccc(OC)c1 [Compound 269],96.3%,74.5%,
CCn1c(OC)nnc1[C@@H](Cc1cccc(Cl)c1)NS(=O)(=O)c1ccc(Cl)cc1 [Compound 440],95.1%,102%,
CCn1c(OCC2CCC2)nnc1[C@@H](C)NS(=O)(=O)c1ccc(Cl)cc1 [Compound 385],99.9%,90.1%,
CCn1c(SCCCN2CCCC2=O)nnc1[C@@H](C)NS(=O)(=O)c1ccc(Cl)cc1 [Compound 79],84.7%,94.9%,
CCn1c(OC)nnc1[C@@H](C)NS(=O)(=O)c1ccccc1C [Compound 246],98.1%,61.8%,
CCn1c(OCCCOC)nnc1[C@@H](C)NS(=O)(=O)c1ccc(Cl)cc1 [Compound 398],85.8%,93.5%,
CCc1ccc(S(=O)(=O)N[C@H](C)c2nnc(OCC(F)(F)F)n2CC)cc1 [Compound 515],,,inhibition at 10 µM (human Edg-1(S1P1) [1]; [5]): 103%; inhibition at 10 µM (human Edg-1(S1P1) [2]; [6]): 62.4%
CCn1c(OC(C)C)nnc1[C@@H](C)NS(=O)(=O)c1cccc(OC(F)F)c1 [Compound 466],,,inhibition at 10 µM (human Edg-1(S1P1) [1]; [5]): 99.3%; inhibition at 10 µM (human Edg-1(S1P1) [2]; [6]): 88.8%
CCn1c(OC)nnc1[C@@H](C)NS(=O)(=O)c1ccc(C(C)=O)cc1 [Compound 199],93%,54.9%,
CCn1c(OC)nnc1[C@@H](C)NS(=O)(=O)c1ccc(F)cc1 [Compound 223],95.5%,70.4%,
CCn1c(OCC(F)(F)F)nnc1[C@@H](C)NS(=O)(=O)c1ccc(C)c(C)c1 [Compound 493],,,inhibition at 10 µM (human Edg-1(S1P1) [1]; [5]): 105%; inhibition at 10 µM (human Edg-1(S1P1) [2]; [6]): 88.3%
CCOc1nnc([C@@H](C)NS(=O)(=O)c2cccc(OC)c2)n1CC [Compound 447],,,"Cell system binding test % inhibition (10 μM) (human Edg-1(S1P1) [1]; 10 μM compound): 89.2%; Membrane system binding test % inhibition (10 μM) (human Edg-1(S1P1) [2]; 10 μM compound, membrane fraction of Edg-1(S1P1) gene transferred HEK-293 cells): 72.2%"
C#CCSc1nnc([C@@H](C)NS(=O)(=O)c2ccc(Cl)cc2)n1CC [Compound 4],86.8%,101%,
CCn1c(OC(C)C)nnc1[C@@H](C)NS(=O)(=O)c1ccc(C(F)(F)F)cc1 [Compound 473],,,inhibition at 10 µM (human Edg-1(S1P1) [1]; [5]): 95.1%; inhibition at 10 µM (human Edg-1(S1P1) [2]; [6]): 91.7%
CCn1c(OC(C)C)nnc1[C@@H](C)NS(=O)(=O)c1ccc2ccccc2c1 [Compound 464],,,inhibition at 10 µM (human Edg-1(S1P1) [1]; [5]): 99.6%; inhibition at 10 µM (human Edg-1(S1P1) [2]; [6]): 98.3%
CCn1c(SCCc2ccc(N(C)C)cc2)nnc1[C@@H](C)NS(=O)(=O)c1ccc(Cl)cc1 [Compound 77],89.4%,96.4%,
CCn1c(OC)nnc1[C@@H](C)NS(=O)(=O)c1ccc(Br)c(C(F)(F)F)c1 [Compound 372],105%,94.3%,
CCn1c(OC)nnc1[C@@H](C)NS(=O)(=O)c1cccc2cccnc12 [Compound 240],93.4%,70.3%,
CCCCCc1ccc(S(=O)(=O)N[C@H](C)c2nnc(OC)n2CC)cc1 [Compound 284],88%,41.5%,
CCn1c(OCCCCCO)nnc1[C@@H](C)NS(=O)(=O)c1ccc(Cl)cc1 [Compound 380],105%,85.2%,
CCn1c(OCCCC(F)(F)F)nnc1[C@@H](C)NS(=O)(=O)c1ccc(Cl)cc1 [Compound 397],88.6%,92%,
CCn1c(OC)nnc1[C@@H](C)NS(=O)(=O)c1csc2ccccc12 [Compound 368],102%,85.1%,

Structure (SMILES),inhibition at 10 µM (human Edg-1(S1P1) [1]; [3]),inhibition at 10 µM (human Edg-1(S1P1) [2]; [4]),further results
CCn1c(OC)nnc1[C@@H](C)NS(=O)(=O)c1ccc(F)c(F)c1 [Compound 287],100%,80.1%,
CCn1c(SCc2ccc([N+](=O)[O-])cc2)nnc1[C@@H](C)NS(=O)(=O)c1ccc(Cl)cc1 [Compound 81],87.6%,110%,
CCn1c(OC)nnc1[C@@H](C)NS(=O)(=O)c1cc(Cl)cc(Cl)c1 [Compound 266],97%,83%,
CCn1c(SCc2ccc(C(F)(F)F)cc2)nnc1C(C)NS(=O)(=O)c1ccc(Cl)cc1 (centres unmarked) [Compound 46],90.4%,99.5%,
CCn1c(OC)nnc1[C@@H](Cc1ccc(Cl)cc1)NS(=O)(=O)c1ccc(Cl)cc1 [Compound 426],95.7%,101%,
CCn1c(OC)nnc1[C@@H](C)NS(=O)(=O)c1ccc(Br)cc1F [Compound 288],103%,54.9%,
CCn1c(OC)nnc1[C@@H](C)NS(=O)(=O)c1ccccc1C(F)(F)F [Compound 260],89.4%,46.9%,
CCn1c(OC(C)C)nnc1[C@@H](C)NS(=O)(=O)c1ccc(Br)c(F)c1 [Compound 455],,,inhibition at 10 µM (human Edg-1(S1P1) [1]; [5]): 93.2%; inhibition at 10 µM (human Edg-1(S1P1) [2]; [6]): 91.7%
CCn1c(SCCOc2ccccc2)nnc1[C@@H](C)NS(=O)(=O)c1ccc(Cl)cc1 [Compound 23],84.4%,95%,
CCn1c(OCC(F)(F)F)nnc1[C@@H](C)NS(=O)(=O)c1cccc(C(F)(F)F)c1 [Compound 503],,,inhibition at 10 µM (human Edg-1(S1P1) [1]; [5]): 104%; inhibition at 10 µM (human Edg-1(S1P1) [2]; [6]): 73.3%
CCn1c(OCC(F)(F)F)nnc1[C@@H](C)NS(=O)(=O)c1ccc2ccccc2c1 [Compound 495],,,inhibition at 10 µM (human Edg-1(S1P1) [1]; [5]): 104%; inhibition at 10 µM (human Edg-1(S1P1) [2]; [6]): 89.9%
CCn1c(SCC2CCCCC2)nnc1[C@@H](C)NS(=O)(=O)c1ccc(Cl)cc1 [Compound 25],81.5%,77.8%,
C/C=C/CSc1nnc([C@@H](C)NS(=O)(=O)c2ccc(Cl)cc2)n1CC [Compound 21],82.2%,74.8%,
CCn1c(OC(C)C)nnc1[C@@H](C)NS(=O)(=O)c1cccc(C)c1 [Compound 470],,,inhibition at 10 µM (human Edg-1(S1P1) [1]; [5]): 91.6%; inhibition at 10 µM (human Edg-1(S1P1) [2]; [6]): 80.8%
CCn1c(SCC2CCO2)nnc1[C@@H](C)NS(=O)(=O)c1ccc(Cl)cc1 (some centres unmarked) [Compound 31],90.2%,90%,
CCOc1nnc([C@@H](C)NS(=O)(=O)c2ccc(CC)cc2)n1CC [Compound 446],91.4%,72.5%,
CCn1c(OC)nnc1[C@@H](C)NS(=O)(=O)/C=C/c1ccccc1 [Compound 241],102%,80.5%,
CCn1c(SCC2CCN(Cc3ccccc3)CC2)nnc1[C@@H](C)NS(=O)(=O)c1ccc(Cl)cc1 [Compound 72],89.8%,95.8%,
C=CCCSc1nnc([C@@H](C)NS(=O)(=O)c2ccc(Cl)cc2)n1CC [Compound 14],87%,69.6%,
CCOc1nnc([C@@H](C)NS(=O)(=O)c2ccc(F)cc2)n1CC [Compound 436],94.5%,49%,
CCN(CC)C(=O)COc1nnc([C@@H](C)NS(=O)(=O)c2ccc(Cl)cc2)n1CC [Compound 383],82.2%,66%,
CCn1c(OCC(F)(F)F)nnc1[C@@H](C)NS(=O)(=O)c1ccc(I)cc1 [Compound 511],,,inhibition at 10 µM (human Edg-1(S1P1) [1]; [5]): 99%; inhibition at 10 µM (human Edg-1(S1P1) [2]; [6]): 85.4%
CCn1c(OC2CCCCC2)nnc1[C@@H](C)NS(=O)(=O)c1ccc(Cl)cc1 [Compound 388],104%,103%,
